# Measurements as given in US9090583B2, “Benzopyrone estrogen receptor regulator” (BEIJING SHENOGEN PHARMA GROUP LTD., priority 2010, dated 2015).
# Like-named read-outs stand apart in the source and are kept apart here.
# Tests used:
# [1] = test system: MDA-MB-231 cells; assay: CellTiter-Glo Luminescent Cell Viability Assay on ER-negative breast cancer MDA-MB-231 cells; assay type: cell-based; conditions: average ± standard deviation when tested more than 3 times, read-out: Inhibition of the viability of breast cancer cells, IC50
# Outline: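 Cells seeded at 6×10^3 per well in DMEM with 10% FCS and exposed 72 h to compound at 0 to 100 μM (twelve concentrations, DMSO vehicle). Viability measured by CellTiter-Glo luminescence.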
# [2] = test system: MCF7 cells; assay: CellTiter-Glo Luminescent Cell Viability Assay on ER-positive breast cancer MCF-7 cells; assay type: cell-based, human; conditions: average ± standard deviation when tested more than 3 times, read-out: Inhibition of the viability of breast cancer cells, IC50
# Outline: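 MCF7 cells (DMEM, 10% FCS, 37 °C) treated 72 h with compound at 0–100 μM (0.3, 0.5, 1, 2, 3, 5, 10, 20, 30, 50, 100 μM). Viability measured by CellTiter-Glo luminescence.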
# [3] = test system: SK-OV3 cells; assay: CellTiter-Glo Luminescent Cell Viability Assay on ovary cancer SK-OV3 cells; assay type: cell-based; conditions: read-out: Inhibition of the viability of ovary cancer cells, IC50
# Experimental: C: In Vitro CellTiter-Glo® Luminescent Cell Viability Assay on Ovary Cancer SK-OV3 Cells
# (§1) The ovary cancer SK-OV3 cells were obtained from Cancer hospital, Chinese Academy of Medical Sciences and maintained in RPMI-1640 and 10% fetal calf serum at 37° C., under 5% CO2 atmosphere. The cells were seeded on 96-well plate at a density of 6×10^3 cells per well. SK-OV3 cells were treated with a test compound dissolved in DMSO at the concentrations of zero, 0.3 μM, 0.5 μM, 1 μM, 2 μM, 3 μM, 5 μM, 10 μM, 20 μM, 30 μM, 50 μM and 100 μM for 72 hours. Treated cells were examined by CellTiter-Glo® Luminescent Cell Viability Assay Kit (Promega), and luminescence values were recorded with Envision.
# [4] = test system: CoC1 cells; assay: CellTiter-Glo Luminescent Cell Viability Assay on ovary cancer CoC1 cells; assay type: cell-based; conditions: 72 hours, read-out: Inhibition of the viability of ovary cancer cells, IC50
# Experimental: B: In Vitro CellTiter-Glo® Luminescent Cell Viability Assay on Ovary Cancer CoC1 Cells
# as §1, with “CoC1” for “SK-OV3”, “10” for “10 μM, 20”
# [5] = test system: HO8910 cells; assay: CellTiter-Glo Luminescent Cell Viability Assay on ovary cancer HO8910 cells; assay type: cell-based; conditions: HO-8910 cells; 72 hours; read-out: Inhibition of the viability of ovary cancer cells, IC50
# Experimental: A: In Vitro CellTiter-Glo® Luminescent Cell Viability Assay on Ovary Cancer HO8910 Cells
# as §1, with “Ovary” for “The ovary”, “HO8910” for “SK-OV3”, “Type Culture Collection of the” for “Cancer hospital,”, “Sciences, Shanghai,” for “Medical Sciences”
# [6] = test system: K562 cells; assay: CellTiter-Glo Luminescent Cell Viability Assay on leukemia K562 cells; assay type: cell-based, human; conditions: Homo sapiens, 72 hours, read-out: Inhibition of the viability of leukemia cells, IC50
# Experimental: A: In Vitro CellTiter-Glo® Luminescent Cell Viability Assay on Leukemia K562 Cells
# as §1, with “leukemia K562” for “ovary cancer SK-OV3”, “ATCC” for “Cancer hospital, Chinese Academy of Medical Sciences”, “IMDM” for “RPMI-1640”, “K562” for “SK-OV3”
# [7] = test system: HL-60 cells; assay: CellTiter-Glo Luminescent Cell Viability Assay on leukemia HL-60 cells; assay type: cell-based, human; conditions: Homo sapiens, 72 hours, read-out: Inhibition of the viability of leukemia cells, IC50
# Experimental: B: In Vitro CellTiter-Glo® Luminescent Cell Viability Assay on Leukemia HL-60 Cells
# as §1, with “leukemia HL-60” for “ovary cancer SK-OV3”, “ATCC” for “Cancer hospital, Chinese Academy of Medical Sciences”, “IMDM” for “RPMI-1640”, “HL-60” for “SK-OV3”
# [8] = test system: Molt-4 cells; assay: CellTiter-Glo Luminescent Cell Viability Assay on leukemia Molt-4 cells; assay type: cell-based; conditions: Homo sapiens, 72 hours, read-out: Inhibition of the viability of leukemia cells, IC50
# Experimental: C: In Vitro CellTiter-Glo® Luminescent Cell Viability Assay on Leukemia Molt-4 Cells
# as §1, with “leukemia Molt-4” for “ovary cancer SK-OV3”, “ATCC” for “Cancer hospital, Chinese Academy of Medical Sciences”, “[…]” for “SK-OV3”
# [9] = test system: Hep3B2.1-7 cells; assay: MTT assay, in vitro growth of liver cancer Hep3B2.1-7 cells; assay type: cell-based; conditions: 72 hours, read-out: Inhibition on liver cancer cells, IC50
# Experimental: The liver cancer Hep3B2.1-7 cells were obtained from ATCC. Cells were incubated in 1640 culture medium with 5% fetal calf serum and 100 U/ml double-antibody in a cell incubator at 37° C., 5% CO2 atmosphere and passaged via conventional methods. The sample was dissolved in DMSO, formulated into 50 mg/ml stocking solution, and stored at 4° C. The test solutions at 50, 25, 12.5 and 6.25 μg/ml were formulated with culture medium immediately before use.
# The adherent cells were digested with cell digestive solution, and then the exfoliated cells were collected and counted. The cell suspension was formulated with 1640 culture medium containing 5% fetal calf serum (5.0×10^4/ml). The cell suspension was seeded on 96-well plate with 100 μl/well, and maintained in a cell incubator at 37° C., 5% CO2 atmosphere for 24 hours. After that, the compounds at various concentrations were added, where solvent was taken as negative control and Taxol as positive control. 10 μl MTT (5 mg/ml) was added after 72 hours. The supernatant was removed after cultivation for 3 hours more, 150 μl DMSO was added and the formazan was dissolved on shaking. OD values were measured at 570 nm after homogeneous mixing, and inhibition rate and IC50 values were calculated based on the mean of OD values from 3 wells.
# [10] = Homo sapiens, SK-OV-3, 72 hours
Structure (SMILES),"IC50 ([1]; Homo sapiens, MDA-MB-231, 72 h) [µM]","IC50 ([2]; Homo sapiens, MCF7, 72 h) [µM]","IC50 [3, 10] [µM]",IC50 [4] [µM],IC50 [5] [µM],IC50 [6] [µM],IC50 [7] [µM],IC50 [8] [µM],IC50 [9] [µg/mL],IC50 ([1]; 72 hours) [µM],IC50 ([2]; 72 hours) [µM],IC50 ([3]; 72 hours) [µM]
"COc1c(-c2cc(F)cc(F)c2)oc2c(CC=C(C)C)c(O)c(CC=C(C)C)c(O)c2c1=O [Compound 2, 2-(3,5-difluorophenyl)-5,7-dihydroxy-3-methoxy-6,8-di(3-methyl-2-buten-1-yl)-4H-benzopyran-4-one]",11.3 ± 1.38,6.51 ± 1.42,7.22,5.19,15.7,> 100,> 100,> 100,–,–,–,–
"COc1c(-c2ccc(F)c(F)c2)oc2c(CC=C(C)C)c(O)c(CC=C(C)C)c(O)c2c1=O [Compound 4, 2-(3,4-difluorophenyl)-5,7-dihydroxy-3-methoxy-6,8-di(3-methyl-2-buten-1-yl)-4H-benzopyran-4-one]",6.37 ± 0.03,4.95 ± 0.65,6.42,–,14,8.65,10.1,10.3,1.38,–,–,–
"COc1c(-c2ccc(F)cc2)oc2c(CC=C(C)C)c(O)c(CC=C(C)C)c(O)c2c1=O [Compound 7, 2-(4-fluorophenyl)-5,7-dihydroxy-3-methoxy-6,8-di(3-methyl-2-buten-1-yl)-4H-benzopyran-4-one]",10.9 ± 2.22,12.6 ± 0.68,> 100,> 100,21.6,–,–,–,1.09,–,–,–
"COc1c(-c2cncs2)oc2c(CC=C(C)C)c(O)c(CC=C(C)C)c(O)c2c1=O [Compound 25, 2-(thiazol-5-yl)-5,7-dihydroxy-3-methoxy-6,8-di(3-methyl-2-buten-1-yl)-4H-benzopyran-4-one]",17.3 ± 6.5,9.19 ± 2.47,12.6,14.3,> 100,> 100,> 100,> 100,–,–,–,–
"COc1ccc(-c2oc3c(CC=C(C)C)c(O)c(CC=C(C)C)c(O)c3c(=O)c2OC)cn1 [Compound 26, 2-(6-methoxypyridin-3-yl)-5,7-dihydroxy-3-methoxy-6,8-di(3-methyl-2-buten-1-yl)-4H-benzopyran-4-one]",12.8 ± 1.78,11 ± 1.34,40.1,17.8,24.3,–,–,–,–,–,–,–
"COc1cc(-c2oc3c(CC=C(C)C)c(O)c(CC=C(C)C)c(O)c3c(=O)c2OC)ccn1 [Compound 27, 2-(2-methoxypyridin-4-yl)-5,7-dihydroxy-3-methoxy-6,8-di(3-methyl-2-buten-1-yl)-4H-benzopyran-4-one]",10.3 ± 0.56,6.17 ± 0.05,7.23,9.23,17.6,–,–,–,–,–,–,–
"COc1c(-c2ccc(F)c(F)c2)oc2c(CC=C(C)C)c(O)c(CC=C(C)C)c(OC)c2c1=O [Compound 83, 2-(3,4-difluorophenyl)-7-hydroxy-3,5-dimethoxy-6,8-di(3-methyl-2-buten-1-yl)-4H-benzopyran-4-one]",11.3 ± 0.86,10.6 ± 3.06,–,–,–,> 100,> 100,> 100,–,–,–,–
"COc1c(-c2ccc(Cl)c(F)c2)oc2c(CC=C(C)C)c(O)c(CC=C(C)C)c(OC)c2c1=O [Compound 84, 2-(3-fluoro-4-chlorophenyl)-7-hydroxy-3,5-dimethoxy-6,8-di(3-methyl-2-buten-1-yl)-4H-benzopyran-4-one]",13.5,6.89,15.7,23.4,23.4,–,–,–,–,–,–,–
"COc1ccc(-c2cc(=O)c3c(O)c(CC=C(C)C)c(O)c(CC=C(C)C)c3o2)cc1Cl [Compound 90, 2-(3-chloro-4-trimethoxyphenyl)-5,7-dihydroxy-6,8-di(3-methyl-2butylene-1-yl)-4H-benzopyran-4-one]",–,–,–,> 100,> 100,–,–,–,–,10.7 ± 1.38,8.98,> 100
